The subject of series [1] is C. neoformans. Nature of the series: MIC against fungal cultures. It is filed as cell-based. The settings on record: Cryptococcus neoformans, read-out: Drug MIC. On the procedure: (§1) The cells were harvested by centrifugation at 4000 RPM for 5 minutes and washed with PBS; the cell pellets were resuspended in RPMI 1640 medium. The cell count was calculated with a hemocytometer and adjusted to be between 5.0×10^4 to 2.5×10^6 cells/ml. A tested compound was prepared and added to RPMI 1640 medium at 2× the final concentration. […] For C. albicans, OD595 was read after incubating the plate at 35° C. for 24 hrs. For KN99α, OD595 was read after incubating the plate at 35° C. for 70 hrs in accordance with CLSI document M27-A2.

For series [2], the system named is Candida tropicalis. Nature of the series: MIC against fungal cultures. The series is classed as cell-based. On the procedure: as §1
Series [3] deals with Candida glabrata. Put plainly: MIC against fungal cultures. It is filed as cell-based. As to conditions: Nakaseomyces glabratus, read-out: Drug MIC.
In series [4] the test system is Salmonella typhimurium strains TA 1535 and TA 1538. As to conditions: With S9; 5 μg/plate. The protocol:
The Ames test was conducted using histidine auxotroph Salmonella typhimurium strains TA 1535 and TA 1538. To test mutagenic potential of the synthetic retinoids themselves and their metabolic products, the assay was conducted both with and without rat liver S9 fraction (Moltox, Boone, N.C., USA). Briefly, 100 μl of bacterial overnight cultures was added into 500 μl of phosphate buffer containing a range of amounts of the retinoids dissolved in 10 μl DMSO and with or without 4% S9. After incubation at 37° C. for 1 h, the samples were added into 2 ml of soft agar including 0.5 mM of histidine/biotin, mixed, and poured onto minimal glucose agar plates. The plates were incubated at 37° C. for 48 h, and the revertant colonies were counted. 10 μl DMSO was used as a negative control. […] 5 μg/plate 2-aminoanthracene was used as a positive control for both strains in the metabolic activation system. The test was performed in triplicate.

The test system of series [5] is S. aureus. Nature of the series: Minimal inhibitory concentration (MIC), broth microdilution. The series is classed as cell-based, Staphylococcus aureus. The text has this:
(§2) Bacterial strains and growth conditions and persister isolation: methicillin-resistant S. aureus (MRSA) strain MW2 BAA-1707, vancomycin-resistant S. aureus strain VRS 1, 11 clinical S. aureus isolates, 8 clinical Enterococcus faecium isolates, Klebsiella pneumoniae WGLW2 (BEI Resources, Manassas, Va., USA), Acinetobacter baumannii ATCC 17978, Pseudomonas aeruginosa PA14, and Enterobacter aerogenes ATCC 13048 were used to test antimicrobial activity (See Table 1a). S. aureus and E. faecium strains were grown in tryptic soy broth (TSB) (BD, Franklin Lakes, N.J., USA) or brain-heart infusion (BHI) broth (BD, Franklin Lakes, N.J., USA), respectively at 37° C. at 225 rpm. K. pneumoniae, A. baumannii, P. aeruginosa, and E. aerogenes were grown in Luria Bertani (LB) broth (BD, Franklin Lakes, N.J., USA).
(§3) To test the bacterial MICs for compounds described herein, the total volume in each well was 100 μl of test compounds and bacterial cells in MH broth. […] The bacterial concentration was adjusted to an initial OD600 of 0.03. After incubation at 35° C. for 18 hrs, the absorbance was measured at 595 nm in accordance with CLSI document M07-A8. The MICs of antibiotics were determined by the standard microdilution method recommended by the Clinical and Laboratory Standards Institute.
Background: In broth dilution the organism is exposed to a series of concentrations in liquid medium.

The test system of series [6] is E. faecium. Put plainly: MIC, broth microdilution. The series is classed as cell-based, Enterococcus faecium. As to conditions: Enterococcus faecium, read-out: Drug MIC.
Source text: as §2, §3

Setting [7] is: C. neoformans clinical isolate 41291.
[8] abbreviates: C. neoformans clinical isolate 41292.
The mark [9] stands for this setting: C. neoformans clinical isolate 41294.
The mark [10] stands for this setting: C. neoformans clinical isolate 41295.
Setting [11] is: C. neoformans clinical isolate 41296.
The mark [12] stands for this setting: C. neoformans clinical isolate 41297.
Where [13] appears, read: C. neoformans clinical isolate 41298.
[14] abbreviates: C. neoformans clinical isolate 41299.
Where [15] appears, read: C. neoformans clinical isolate 41300.
Where [16] appears, read: C. neoformans clinical isolate BF113.
Setting [17] is: C. neoformans clinical isolate BF114.
Setting [18] is: ATCC13803, Candida tropicalis ATCC 13803 (Reference), read-out: Drug MIC.
Setting [19] is: Candida tropicalis clinical isolate 11, read-out: Drug MIC.
Where [20] appears, read: Candida tropicalis clinical isolate 85-S, read-out: Drug MIC.
The mark [21] stands for this setting: Candida tropicalis clinical isolate 172-S, read-out: Drug MIC.
The mark [22] stands for this setting: ATCC90030, Candida glabrata ATCC 90030 (Reference).
[23] abbreviates: Candida glabrata clinical isolate 6891.
Setting [24] is: Candida glabrata clinical isolate 6922.
Where [25] appears, read: Candida glabrata clinical isolate 6927.
Where [26] appears, read: Candida glabrata clinical isolate 6930.
Where [27] appears, read: Candida glabrata clinical isolate 6931.
The mark [28] stands for this setting: Candida glabrata clinical isolate 6932.
The mark [29] stands for this setting: Candida glabrata clinical isolate 6943.
The mark [30] stands for this setting: Candida glabrata clinical isolate 7110.
[31] abbreviates: Candida glabrata clinical isolate 7117.
Setting [32] is: Candida glabrata clinical isolate 7221.
[33] abbreviates: Candida glabrata clinical isolate 7255.
The mark [34] stands for this setting: Candida glabrata clinical isolate 7815.
[35] abbreviates: Candida glabrata clinical isolate 7869.
[36] abbreviates: Candida glabrata clinical isolate 7871.
The mark [37] stands for this setting: Candida glabrata clinical isolate 8066.

≈ marks a conversion by molar mass, not a printed value. Where two headings read alike, the source gives them in different places.

Consider `OC(Cn1cncn1)(Cn1cncn1)c1ccc(F)cc1F` [Fluconazole], for which the MIC (in general, the lowest concentration found to suppress growth) in series [1] (setting [7]) is 8 µg/mL (≈ 26.1 µM); in series [1] (setting [8]), 64 µg/mL (≈ 209 µM); in series [1] (setting [9]), 8 µg/mL (≈ 26.1 µM); in series [1] (setting [10]), 64 µg/mL (≈ 209 µM); in series [1] (setting [11]), above 64 µg/mL; in series [1] (setting [12]), 8 µg/mL (≈ 26.1 µM). Also, the MIC in series [1] (setting [13]) was 8 µg/mL (≈ 26.1 µM); in series [1] (setting [14]), 4 µg/mL (≈ 13.1 µM); in series [1] (setting [15]), above 64 µg/mL; in series [1] (setting [16]), 16 µg/mL (≈ 52.2 µM); in series [1] (setting [17]), 64 µg/mL (≈ 209 µM); in series [2] (setting [18]), 8 µg/mL (≈ 26.1 µM). Also, the MIC in series [2] (setting [19]) came to 0.5 µg/mL (≈ 1.63 µM); in series [2] (setting [20]) it was 1 µg/mL (≈ 3.27 µM); in series [2] (setting [21]), 2 µg/mL (≈ 6.53 µM); in series [3] (setting [22]), 8 µg/mL (≈ 26.1 µM); in series [3] (setting [23]), 2 µg/mL (≈ 6.53 µM); in series [3] (setting [24]) it was 2 µg/mL (≈ 6.53 µM). Moreover, the MIC came to 2 µg/mL (≈ 6.53 µM) in series [3] (setting [25]); 1 µg/mL (≈ 3.27 µM) in series [3] (setting [26]); 0.5 µg/mL (≈ 1.63 µM) in series [3] (setting [27]); 0.5 µg/mL (≈ 1.63 µM) in series [3] (setting [28]); 8 µg/mL (≈ 26.1 µM) in series [3] (setting [29]); 1 µg/mL (≈ 3.27 µM) in series [3] (setting [30]). Further, the MIC is 2 µg/mL (≈ 6.53 µM) in series [3] (setting [31]); 1 µg/mL (≈ 3.27 µM) in series [3] (setting [32]); 2 µg/mL (≈ 6.53 µM) in series [3] (setting [33]); 2 µg/mL (≈ 6.53 µM) in series [3] (setting [34]); 4 µg/mL (≈ 13.1 µM) in series [3] (setting [35]); 2 µg/mL (≈ 6.53 µM) in series [3] (setting [36]). For the same compound, the MIC in series [3] (setting [37]) amounted to 2 µg/mL (≈ 6.53 µM).
`Nc1ccc2cc3ccccc3cc2c1` [2AA, 2-Aminoanthracene]: in series [4], the “Number of revertants (T1535)” value is recorded as 263 ± 15 and the “Number of revertants (T1538)” value was 2568 ± 108.
On to “Defensin 1: a CAMP (cationic antimicrobial peptide) secreted by the host immune system”, for which the MIC in series [5] (S. aureus MW2 mutant SP1-8 (graS)) is 8 µg/mL; in series [5] (S. aureus MW2 mutant SP1-48 (graS, manA)) it was 8 µg/mL; in series [5] (S. aureus MW2 mutant SP1-74 (graS, manA, MW2474)), 8 µg/mL; in series [5] (S. aureus MW2 mutant SP1-100 (graS, manA, MW2474)), 8 µg/mL; in series [5] (S. aureus MW2 mutant SP2-13 (yjbH)) it was 16 µg/mL; in series [5] (S. aureus MW2 mutant SP2-52 (yjbH, dltB)), 8 µg/mL. For the same compound, the MIC is 8 µg/mL in series [5] (S. aureus MW2 mutant SP2-59 (yjbH, dltB, manA)); 8 µg/mL in series [5] (S. aureus MW2 mutant SP2-65 (yjbH, dltB, manA, MW1685)); 8 µg/mL in series [5] (S. aureus MW2 mutant SP2-100 (yjbH dltB, manA, MW1685)); 16 µg/mL in series [5] (S. aureus MW2 serial passage culture SP1-1 (no mutated gene)); 16 µg/mL in series [5] (S. aureus MW2 serial passage culture SP2-1 (no mutated gene)).
Take `C[C@@H]1[C@H](O)[C@@H](C)/C=C/C=C/C=C/C=C/C=C/C=C/C=C/[C@H](O[C@@H]2O[C@H](C)[C@@H](O)[C@H](N)[C@@H]2O)C[C@@H]2O[C@](O)(C[C@@H](O)C[C@@H](O)[C@H](O)CC[C@@H](O)C[C@@H](O)CC(=O)O[C@H]1C)C[C@H](O)[C@H]2C(=O)O` [Amphotericin B]: the MIC in series [1] (setting [7]), in series [1] (setting [8]), in series [1] (setting [9]), in series [1] (setting [10]), in series [1] (setting [11]) and in series [1] (setting [12]) was 0.125 µg/mL (≈ 0.135 µM) each time. Also, the MIC in series [1] (setting [13]) is 0.125 µg/mL (≈ 0.135 µM); in series [1] (setting [14]) it was 0.125 µg/mL (≈ 0.135 µM); in series [1] (setting [15]), 0.125 µg/mL (≈ 0.135 µM); in series [1] (setting [16]), 0.125 µg/mL (≈ 0.135 µM); in series [1] (setting [17]) it was below 0.0625 µg/mL; in series [2] (setting [18]), 1 µg/mL (≈ 1.08 µM). Also, the MIC in series [2] (setting [19]) came to 0.5 µg/mL (≈ 0.541 µM); in series [2] (setting [20]), 0.125 µg/mL (≈ 0.135 µM); in series [2] (setting [21]), 0.5 µg/mL (≈ 0.541 µM); in series [3] (setting [22]) it was 1 µg/mL (≈ 1.08 µM); in series [3] (setting [23]) it was 0.5 µg/mL (≈ 0.541 µM); in series [3] (setting [24]) it was 0.5 µg/mL (≈ 0.541 µM). The MIC turned out to be 1 µg/mL (≈ 1.08 µM) in series [3] (setting [25]); 1 µg/mL (≈ 1.08 µM) in series [3] (setting [26]); 0.5 µg/mL (≈ 0.541 µM) in series [3] (setting [27]); 0.5 µg/mL (≈ 0.541 µM) in series [3] (setting [28]); 1 µg/mL (≈ 1.08 µM) in series [3] (setting [29]); 0.5 µg/mL (≈ 0.541 µM) in series [3] (setting [30]). The MIC in series [3] (setting [31]) was found to be 0.5 µg/mL (≈ 0.541 µM); in series [3] (setting [32]), 0.5 µg/mL (≈ 0.541 µM); in series [3] (setting [33]), 1 µg/mL (≈ 1.08 µM); in series [3] (setting [34]), 0.5 µg/mL (≈ 0.541 µM); in series [3] (setting [35]), 1 µg/mL (≈ 1.08 µM); in series [3] (setting [36]), 1 µg/mL (≈ 1.08 µM). Besides, the MIC in series [3] (setting [37]) was found to be 0.5 µg/mL (≈ 0.541 µM).
On to `O=C(N[C@H](CO)[C@H](O)c1ccc([N+](=O)[O-])cc1)C(Cl)Cl` [chloramphenicol], for which the MIC was 16 µg/mL (≈ 49.5 µM) in series [6] (Enterococcus faecium clinical isolate C68 (Table 6)); 8 µg/mL (≈ 24.8 µM) in series [6] (Enterococcus faecium clinical isolate D14 (Table 6)); 4 µg/mL (≈ 12.4 µM) in series [6] (Enterococcus faecium clinical isolate D24 (Table 6)); 8 µg/mL (≈ 24.8 µM) in series [6] (Enterococcus faecium clinical isolate D25 (Table 6)); 64 µg/mL (≈ 198 µM) in series [6] (Enterococcus faecium clinical isolate D29 (Table 6)); 8 µg/mL (≈ 24.8 µM) in series [6] (Enterococcus faecium clinical isolate W312 (Table 6)). Further, the MIC in series [6] (Enterococcus faecium clinical isolate WC176 (Table 6)) came out at 16 µg/mL (≈ 49.5 µM).

Source of the values: US11707442B2, “Antibacterial and antifungal compounds” (The General Hospital Corporation, priority 2015, dated 2023).
